The values below come from patent US20020150975A1 (priority 2000, published 2002).

In this assay the test system is SCLC cells. The assay is classed as cell-based, human.
For `CN1CCCC1c1cccnc1` (stereo not drawn) [nicotine], the “effect on proliferation / rate of growth of SCLC cells” value (from here on “effect on proliferation / rate”) was “increase the rate of growth”.
Turning to alpha-bungarotoxin, the “effect on proliferation / rate” value was “slow down or suppress proliferation”.
With alpha-cobratoxin, the “effect on proliferation / rate” value is recorded as “slow down or suppress proliferation”.
